Columns and labels:
293T cells [1] = test: Fluorescent detection of Fluc-mRNA (cell transfection efficiency of LNP formulations); type: cell-based
293T cells [2] = test: as above; type: cell-based; remark: listed apart in the source
293T cells [3] = test: Cell survival rate assay (CCK-8); type: cell-based
In short: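 293T cells seeded at 10,000 cells/well, cultured overnight, then exposed 24 h to LNP carrying 1.5 μg Fluc-mRNA (cationic:neutral:structured:PEG-type lipid 49:10:39.5:1.5) or Lipofectamine 3000. Viability read by CCK-8, 1 h incubation, absorbance at 450 nm.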

female BALB/C mice = test: In vivo imaging in mice of Fluc-mRNA LNP formulations (mRNA expression and duration)
In short: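 Female BALB/C mice (4-6 weeks, 17-19 g) received LNP carrying […] Fluc-mRNA intramuscularly. At 6h, 24 h, 48h and 7d, fluorescent imaging substrate was given intraperitoneally and after 5 minutes average radiance, as a measure of expressed protein, was imaged on an IVIS Spectrum system.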

Compound: CCCCCCCCC(CCCCCCCC)COC(=O)CCCCCN(CCCO)CCCN(CCCO)CCCCCC(=O)OCC(CCCCCCCC)CCCCCCCC [YK-423, di(2-octyldecyl) 6,6′-(propan-1,3-diyl-bis((3-hydroxypropyl)azanediyl))dihexanoate]
- Relative light unit (RLU) (293T cells [1]; LNP with 0.3 μg Fluc-mRNA, 96-well plate, 24 hours): 6227115 RLU
- cell transfection efficiency, times that of YK-415 (293T cells [1]; ratio vs YK-415): 20.89
- cell transfection efficiency, times that of YK-417 (293T cells [1]; ratio vs YK-417): 53.09
- cell transfection efficiency, times that of YK-418 (293T cells [1]; ratio vs YK-418): 55.97
- cell transfection efficiency, times that of YK-424 (293T cells [1]; ratio vs YK-424): 2.16
- RLU value, times that of compound 21 (293T cells [1]; ratio vs compound 21): 4.12
- RLU value, times that of compound 23 (293T cells [1]; ratio vs compound 23): 4.44
- RLU value, times that of ALC-0315 (293T cells [2]; ratio vs ALC-0315): 2.84
- RLU value, times that of HHMA (293T cells [2]; ratio vs HHMA): 3.00
- RLU value, times that of Lipofectamine 3000 (293T cells [2]; ratio vs Lipofectamine 3000): 5.19
- RLU value, times that of YK-009 (293T cells [2]; ratio vs YK-009): 1.21
- RLU value, times that of YK-405 (293T cells [2]; ratio vs YK-405): 1.95
- RLU value, times that of YK-406 (293T cells [2]; ratio vs YK-406): 79.58
- RLU value, times that of YK-408 (293T cells [2]; ratio vs YK-408): 4.22
- RLU value, times that of YK-409 (293T cells [2]; ratio vs YK-409): 9.30
- RLU value, times that of YK-410 (293T cells [2]; ratio vs YK-410): 15.27
- cell transfection efficiency, times that of YK-412 (293T cells [2]; ratio vs YK-412): 1.85
- cell transfection efficiency, times that of YK-413 (293T cells [2]; ratio vs YK-413): 4.52
- cell transfection efficiency, times that of YK-414 (293T cells [2]; ratio vs YK-414): 14.02
- cell transfection efficiency, times that of YK-416 (293T cells [2]; ratio vs YK-416): 1.57
- cell transfection efficiency, times that of YK-419 (293T cells [2]; ratio vs YK-419): 1.97
- cell transfection efficiency, times that of YK-420 (293T cells [2]; ratio vs YK-420): 1.55
- cell transfection efficiency, times that of YK-421 (293T cells [2]; ratio vs YK-421): 13.35
- Cell survival rate (293T cells [3]; LNP with 1.5 μg Fluc-mRNA, 24 hours, CCK-8): 71.14%
- cell survival rate higher than ALC-0315 (293T cells [3]; difference vs ALC-0315): 23.93%
- cell survival rate higher than HIMA (293T cells [3]; difference vs HIMA (HHMA)): 6.87%
- cell survival rate higher than Lipofectamine 3000 (293T cells [3]; difference vs Lipofectamine 3000): 49.48%
- cell survival rate higher than SM-102 (293T cells [3]; difference vs SM-102): 3.24%
- cell survival rate higher than YK-404 (293T cells [3]; difference vs YK-404): 29.02%
- cell survival rate higher than YK-405 (293T cells [3]; difference vs YK-405): 29.28%
- cell survival rate higher than YK-406 (293T cells [3]; difference vs YK-406): 46.18%
- cell survival rate higher than YK-408 (293T cells [3]; difference vs YK-408): 28.83%
- cell survival rate higher than YK-409 (293T cells [3]; difference vs YK-409): 25.03%
- cell survival rate higher than YK-410 (293T cells [3]; difference vs YK-410): 26.22%
- cell survival rate higher than YK-411 (293T cells [3]; difference vs YK-411): 54.81%
- cell survival rate higher than YK-412 (293T cells [3]; difference vs YK-412): 17.00%
- cell survival rate higher than YK-413 (293T cells [3]; difference vs YK-413): 23.94%
- cell survival rate higher than YK-414 (293T cells [3]; difference vs YK-414): 42.39%
- cell survival rate higher than YK-415 (293T cells [3]; difference vs YK-415): 9.98%
- cell survival rate higher than YK-416 (293T cells [3]; difference vs YK-416): 30.17%
- cell survival rate higher than YK-417 (293T cells [3]; difference vs YK-417): 49.80%
- cell survival rate higher than YK-418 (293T cells [3]; difference vs YK-418): 50.09%
- cell survival rate higher than YK-419 (293T cells [3]; difference vs YK-419): 32.22%
- cell survival rate higher than YK-420 (293T cells [3]; difference vs YK-420): 35.55%
- cell survival rate higher than YK-421 (293T cells [3]; difference vs YK-421): 35.43%
- cell survival rate higher than YK-424 (293T cells [3]; difference vs YK-424): 43.21%
- cell survival rate higher than compound 21 (293T cells [3]; difference vs compound 21): 3.30%
- cell survival rate higher than compound 23 (293T cells [3]; difference vs compound 23): 2.03%
- cytotoxicity reduced compared with YK-411 (293T cells [3]; rounded summary statement vs YK-411): 50%
- average radiation intensity, times that of ALC-0315 (female BALB/C mice; 6 h): 1.94
- average radiation intensity, times that of HHMA (female BALB/C mice; 6 h): 2.46
- average radiation intensity, times that of SM-102 (female BALB/C mice; 6 h): 2.35
- average radiation intensity, times that of compound 21 (female BALB/C mice; 6 h): 2.71
- average radiation intensity, times that of compound 23 (female BALB/C mice; 6 h): 2.80
- expression amount in mice, times that of YK-415 (female BALB/C mice; 6 h): 13.81
- expression amount in mice, times that of YK-417 (female BALB/C mice; 6 h): 26.91
- mRNA expression in mice, times that of YK-411 (female BALB/C mice; 6 h): 278.19
- average radiation intensity, times that of ALC-0315 (female BALB/C mice; 24 h): 3.99
- average radiation intensity, times that of HHMA (female BALB/C mice; 24 h): 6.30
- average radiation intensity, times that of SM-102 (female BALB/C mice; 24 h): 6.13
- average radiation intensity, times that of compound 21 (female BALB/C mice; 24 h): 6.81
- average radiation intensity, times that of compound 23 (female BALB/C mice; 24 h): 7.49
- expression amount in mice, times that of YK-415 (female BALB/C mice; 24 h): 11.73
- expression amount in mice, times that of YK-417 (female BALB/C mice; 24 h): 37.85
- mRNA expression in mice, times that of YK-411 (female BALB/C mice; 24 h): 374.12
- average radiation intensity, times that of ALC-0315 (female BALB/C mice; 48 h): 8.73
- average radiation intensity, times that of HHMA (female BALB/C mice; 48 h): 10.50
- average radiation intensity, times that of SM-102 (female BALB/C mice; 48 h): 10.65
- average radiation intensity, times that of compound 21 (female BALB/C mice; 48 h): 11.10
- average radiation intensity, times that of compound 23 (female BALB/C mice; 48 h): 10.64
- expression amount in mice, times that of YK-415 (female BALB/C mice; 48 h): 22.17
- expression amount in mice, times that of YK-417 (female BALB/C mice; 48 h): 49.70
- mRNA expression in mice, times that of YK-411 (female BALB/C mice; 48 h): 359.10
- average radiation intensity, times that of ALC-0315 (female BALB/C mice; 7 d): 1.44
- average radiation intensity, times that of HHMA (female BALB/C mice; 7 d): 1.69
- average radiation intensity, times that of SM-102 (female BALB/C mice; 7 d): 1.50
- average radiation intensity, times that of compound 21 (female BALB/C mice; 7 d): 1.58
- average radiation intensity, times that of compound 23 (female BALB/C mice; 7 d): 1.65
- expression amount in mice, times that of YK-415 (female BALB/C mice; 7 d): 2.50
- expression amount in mice, times that of YK-417 (female BALB/C mice; 7 d): 4.42
- mRNA expression in mice, times that of YK-411 (female BALB/C mice; 7 d): 21.03
- average radiation intensity, 6 h (female BALB/C mice; Fluc-mRNA LNP intramuscular, 6 h after administration): 1627420
- average radiation intensity, 24 h (female BALB/C mice; Fluc-mRNA LNP intramuscular, 24 h after administration): 756472
- average radiation intensity, 48 h (female BALB/C mice; Fluc-mRNA LNP intramuscular, 48 h after administration): 350120
- average radiation intensity, 7 d (female BALB/C mice; Fluc-mRNA LNP intramuscular, 7 d after administration): 10093

Reference: patent US12545637B2, “Extrahepatic targeted cationic lipid compound with high efficiency and low toxicity and its composition” (BEIJING YOUCARE KECHUANG PHARMACEUTICAL TECHNOLOGY CO., LTD., priority 2023, dated 2026)
